Measured values published in US9650339B2, “Inhibitors of histone demethylases” (Gilead Sciences, Inc., priority 2013, dated 2017).

Experiments:
[1] = target: KDM6A (UTX) (Homo sapiens, UniProt O15550); assay: Histone lysine demethylase AlphaLISA assay, KDM6A; type: biochemical; settings: read-out: KDM6A HDME Inhibition IC50
Method: (§1) Assays are performed analogously to the protocol described by PerkinElmer (Roy et al. PerkinElmer Technical Note: AlphaLISA #12, April 2011)
(§2) Enzymes are dissolved in enzyme buffer and incubated for 10 min before being added to 3% DMSO solutions of compounds in enzyme buffer. Incubated for another 10 minutes, before substrate solution is added and the reaction mixture is incubated at room temperature. 10 μL acceptor beads, suspended in Epigenetic Buffer (Perkin Elmer AL008) from stock, are added and the suspension is incubated in the dark at room temperature, before a suspension of streptavidin donor beads (Perkin Elmer 6760002) in Epigenetic Buffer is added. After incubation at room temperature in the dark the plates are read. […]
BK27M3: Biotin-ATKAAR(Kme3)SAPATGGVKKPHRY-NH2? (Caslo, Denmark) […]
(§3) Substrate Solution: Substrate, 25 μM L-Asc, and 10 μM α-KG in Buffer A.

[2] = target: T1, KDM4C (JMJD2C) (Homo sapiens, UniProt Q9H3R0); assay: Histone lysine demethylase AlphaLISA assay, KDM4C; type: biochemical; settings: read-out: KDM4C HDME Inhibition IC50
T1 sequence (Q9H3R0 1-349): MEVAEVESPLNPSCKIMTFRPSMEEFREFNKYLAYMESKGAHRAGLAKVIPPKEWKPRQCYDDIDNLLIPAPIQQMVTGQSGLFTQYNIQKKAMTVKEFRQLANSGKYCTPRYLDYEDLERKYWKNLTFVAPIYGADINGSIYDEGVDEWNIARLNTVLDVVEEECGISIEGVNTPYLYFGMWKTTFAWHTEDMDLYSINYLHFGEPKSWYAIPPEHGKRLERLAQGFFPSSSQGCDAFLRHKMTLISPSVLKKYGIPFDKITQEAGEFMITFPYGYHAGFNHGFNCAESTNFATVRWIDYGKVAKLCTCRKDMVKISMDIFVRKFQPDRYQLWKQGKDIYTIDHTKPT
Method: as §1
Enzymes are dissolved in enzyme buffer and incubated for 10 min before being added to 3% DMSO solutions of compounds in enzyme buffer. Incubated for another 10 minutes, before substrate solution is added and the reaction mixture is incubated at room temperature. 10 μL acceptor beads, suspended in Epigenetic Buffer (Perkin Elmer AL008) from stock, are added and the suspension is incubated in the dark at room temperature, before a suspension of streptavidin donor beads (Perkin Elmer 6760002) in Epigenetic Buffer is added. After incubation at room temperature in the dark the plates are read.
BK9M3: Biotin-ARTKQTAR(KMe3)STGGKAPRKQ-NH2 (Caslo, Denmark) […]
as §3

[3] = system: H3K4me3 mark; assay: Histone lysine demethylase immunofluorescence assay, non-transfected U2OS cells; type: cell-based; settings: Homo sapiens, staining of the H3K4me3 mark, 20 hours incubation with compound
Method: U2OS cells were harvested and seeded into multi well plates into media containing compound. The media used was DMEM containing 5% FBS and pen/strep. 20 hours after incubation of cells with compounds, the cells were washed once in PBS, harvested by fixation with formaldehyde 4% aqueous solution, and washed in PBS. Subsequently, the cells were permeabilized in PBS with 0.2% Triton X-100. Blocking was performed in PBS with 0.2% Triton X-100 and 5% FBS. The cells were incubated with αH3K4me3 primary antibody (Cell Signaling, #9751S) in blocking solution over night at 4° C. After incubation with primary antibody, the cells were washed with PBS, incubated with secondary antibody (Alexa fluor 594 goat anti rabbit IgG, Invitrogen, A11012) and Hoechst, (Sigma, 33342) in blocking solution, and washed again with PBS. Finally, PBS was added and high throughput imaging and analysis were performed by an IN Cell Analyzer 1000 (GE Healthcare). The IC50 values were based on an average measure of the staining of the H3K4me3 mark in cells.

[4] = system: MCF7 cells; assay: Cell proliferation assay MCF7; type: cell-based; settings: MCF7 human breast cancer cells; 120 hours; ATPlite 1 Step
Method: MCF7 cells were seeded in multi well plates at a density optimized to give approximately 90% confluent cells at the time of harvest. Cells were incubated for 24 hours before addition of compound. Compounds were diluted in complete medium and added to the plates in duplicates. The final concentration of DMSO was maximum 0.5%. Complete medium used was DMEM with GlutaMAX containing 10% FBS and pen/strep.
120 hours after addition of compounds, the plates were harvested and analyzed by ATPlite 1 Step (Perkin Elmer, cat no 6016739) according to the manufactures recommendation.

[5] = target: T2, KDM5B (PLU-1) (Homo sapiens, UniProt Q9UGL1); assay: Histone lysine demethylase AlphaLISA assay, KDM5B; type: biochemical; settings: read-out: KDM5B HDME Inhibition IC50
T2 sequence (Q9UGL1 1-809): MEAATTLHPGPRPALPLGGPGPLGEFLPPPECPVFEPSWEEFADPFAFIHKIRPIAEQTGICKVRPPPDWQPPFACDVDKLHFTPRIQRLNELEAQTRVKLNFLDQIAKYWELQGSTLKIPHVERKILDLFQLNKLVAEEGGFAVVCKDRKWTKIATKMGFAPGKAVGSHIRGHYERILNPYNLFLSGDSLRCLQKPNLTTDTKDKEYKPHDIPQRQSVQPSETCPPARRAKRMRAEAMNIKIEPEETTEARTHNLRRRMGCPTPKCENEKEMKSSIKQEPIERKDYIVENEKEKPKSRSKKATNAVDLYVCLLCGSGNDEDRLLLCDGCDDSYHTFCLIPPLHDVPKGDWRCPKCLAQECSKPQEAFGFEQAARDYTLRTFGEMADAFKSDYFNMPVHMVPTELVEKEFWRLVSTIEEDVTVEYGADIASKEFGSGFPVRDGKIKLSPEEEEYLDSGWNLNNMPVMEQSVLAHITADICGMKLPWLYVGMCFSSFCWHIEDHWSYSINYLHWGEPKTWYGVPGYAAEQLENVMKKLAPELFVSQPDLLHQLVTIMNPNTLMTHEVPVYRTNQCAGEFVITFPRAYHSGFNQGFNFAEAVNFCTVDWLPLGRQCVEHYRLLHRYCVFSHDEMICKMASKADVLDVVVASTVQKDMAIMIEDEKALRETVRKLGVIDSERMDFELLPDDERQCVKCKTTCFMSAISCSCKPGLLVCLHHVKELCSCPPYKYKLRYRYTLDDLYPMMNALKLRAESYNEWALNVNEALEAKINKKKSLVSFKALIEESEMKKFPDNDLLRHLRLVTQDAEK
Method: as §1, §2
H3K4M3B: H-ART(Kme3)QTARKSTGGKAPRKQLA-NH-Biotin (Caslo, Denmark) […]
as §3

[6] = target: T3, KDM2B (FBXL10) (Homo sapiens, UniProt Q8NHM5); assay: Histone lysine demethylase AlphaLISA assay, KDM2B; type: biochemical; settings: read-out: KDM2B HDME Inhibition IC50
T3 sequence (Q8NHM5 1-650): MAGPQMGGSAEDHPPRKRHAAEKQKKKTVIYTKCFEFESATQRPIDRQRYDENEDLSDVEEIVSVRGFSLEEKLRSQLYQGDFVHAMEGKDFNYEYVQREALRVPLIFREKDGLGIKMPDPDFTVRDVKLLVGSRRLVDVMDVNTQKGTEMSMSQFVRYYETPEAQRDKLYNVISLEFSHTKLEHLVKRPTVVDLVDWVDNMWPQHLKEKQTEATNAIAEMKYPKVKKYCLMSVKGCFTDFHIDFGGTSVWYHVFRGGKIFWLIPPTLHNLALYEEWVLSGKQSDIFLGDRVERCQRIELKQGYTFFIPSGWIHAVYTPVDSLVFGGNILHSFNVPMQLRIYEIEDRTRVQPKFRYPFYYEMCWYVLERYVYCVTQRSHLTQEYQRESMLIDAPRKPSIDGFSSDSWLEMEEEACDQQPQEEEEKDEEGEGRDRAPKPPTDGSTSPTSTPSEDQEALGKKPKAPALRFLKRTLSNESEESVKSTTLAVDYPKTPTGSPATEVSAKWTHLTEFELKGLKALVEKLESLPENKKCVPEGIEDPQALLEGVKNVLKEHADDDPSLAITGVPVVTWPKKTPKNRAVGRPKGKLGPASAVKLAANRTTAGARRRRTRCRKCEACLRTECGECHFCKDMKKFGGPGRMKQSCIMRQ
Method: as §1, §2
BH3K36M2: RKAAPATGGVK(Me2)KPHRYRPGTVK-(BIOTIN)? (Anaspec)
as §3

Chain of KDM6A (UTX) (O15550 919-1401): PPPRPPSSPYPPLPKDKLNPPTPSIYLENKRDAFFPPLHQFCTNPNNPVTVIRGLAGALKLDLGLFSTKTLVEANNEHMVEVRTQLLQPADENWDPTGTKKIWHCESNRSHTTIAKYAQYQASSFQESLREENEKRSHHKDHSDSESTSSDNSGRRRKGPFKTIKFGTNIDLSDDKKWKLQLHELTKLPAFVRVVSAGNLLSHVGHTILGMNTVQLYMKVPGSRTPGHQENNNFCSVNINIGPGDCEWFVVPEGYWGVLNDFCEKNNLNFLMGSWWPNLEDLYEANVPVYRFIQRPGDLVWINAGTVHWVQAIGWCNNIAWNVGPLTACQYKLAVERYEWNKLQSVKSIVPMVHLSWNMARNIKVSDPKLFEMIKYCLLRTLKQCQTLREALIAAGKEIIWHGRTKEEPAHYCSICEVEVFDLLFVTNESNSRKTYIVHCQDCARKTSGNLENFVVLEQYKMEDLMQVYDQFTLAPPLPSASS

Row | SMILES | IC50 [1] [nM] | IC50 [2] [nM] | IC50 [3] [nM] | EC50 [4] [nM] | IC50 [5] [nM] | IC50 [6] [nM]
1 | CCN(CC)CCCCNCc1cc(CNC(=O)C(=O)OC(C)(C)C)ccn1 [Compound 28, tert-butyl ({[2-({[4-(diethylamino)-butyl]amino}methyl)pyridin-4-yl]methyl}carbamoyl)-formate] | > 2500 | > 2500 | 250 to 2500 | 250 to 2500 | 250 to 2500 | –
2 | CCN(CCN1CCC1)C(=O)CNCc1cc(CNC(=O)C(F)(F)F)ccn1 [Compound 30, N-[(2-{[({[2-(azetidin-1-yl)ethyl](ethyl)-carbamoyl}-methyl)amino]methyl}-pyridin-4-yl)methyl]-2,2,2-trifluoroacetamide] | > 2500 | > 2500 | < 250 | < 250 | 250 to 2500 | > 2500
3 | CCN(CCN(C)C)C(=O)CNCc1cc(CNC(=O)C(F)(F)CC)ccn1 [Compound 32, N-[(2-{[({[2-(dimethylamino)-ethyl](ethyl)-carbamoyl}methyl)-amino]methyl}pyridin-4-yl)methyl]-2,2-difluorobutanamide] | > 2500 | > 2500 | > 2500 | > 2500 | < 250 | > 2500
4 | CCN(CC)CCCCNCc1cc(C=NNc2ccc(C#N)cc2)ccn1 [Compound 70, 4-[2-{[2-({[4-(diethylamino)-butyl]amino}methyl)pyridin-4-yl]methylidene}-hydrazin-1-yl]benzonitrile] | > 2500 | > 2500 | 250 to 2500 | 250 to 2500 | 250 to 2500 | –
5 | CCN(CC)CCCCNCc1cc(C=NCC(C)O)ccn1 (centres unmarked) [Compound 74, 1-[{[2-({[4-(diethylamino)-butyl]amino}-methyl)pyridin-4-yl]methylidene}-amino]propan-2-ol] | – | > 2500 | < 250 | < 250 | < 250 | –
6 | CCN(CC)CCCCNCc1cc(/C=N/CC2(CO)CC2)ccn1 [Compound 77, (1-{[{[2-({[4-(diethylamino)-butyl]amino}-methyl)pyridin-4-yl]-methylidene}amino]-methyl}cyclopropyl)-methanol] | – | > 2500 | < 250 | < 250 | 250 to 2500 | > 2500
7 | CCN(CC1CCCN1C)C(=O)CNCc1cc(/C=N/CCO)ccn1 (centres unmarked) [Compound 79, N-ethyl-2-[({4-[[(2-hydroxyethyl)imino]-methyl]pyridin-2-yl}methyl)amino]-N-[(1-methylpyrrolidin-2-yl)-methyl]acetamide] | – | 250 to 2500 | < 250 | < 250 | < 250 | > 2500
8 | CCN(CCCN(C)C)C(=O)CNCc1cc(/C=N/CCO)ccn1 [Compound 82, N-[3-(dimethylamino)propyl]-N-ethyl-2-[({4-[[(2-hydroxyethyl)imino]-methyl]pyridin-2-yl}methyl)amino]-acetamide] | > 2500 | > 2500 | < 250 | < 250 | > 2500 | > 2500
9 | CCN(CC(C)N(C)C)C(=O)CNCc1cc(/C=N/CCO)ccn1 (centres unmarked) [Compound 83, N-[2-(dimethylamino)-propyl]-N-ethyl-2-[({4-[[(2-hydroxyethyl)imino]-methyl]pyridin-2-yl}methyl)amino]-acetamide] | – | 250 to 2500 | < 250 | < 250 | < 250 | > 2500
10 | CCN(CC)CCN(CC)C(=O)CNCc1cc(C=O)ccn1 [Compound 116, N-[2-(diethylamino)-ethyl]-N-ethyl-2-{[(4-formylpyridin-2-yl)methyl]amino}-acetamide] | > 2500 | < 250 | < 250 | < 250 | < 250 | –
11 | CCN(CC1CCCN1C)C(=O)CNCc1cc(C=O)ccn1 (centres unmarked) [Compound 119, N-ethyl-2-{[(4-formylpyridin-2-yl)methyl]amino}-N-[(1-methylpyrrolidin-2-yl)methyl]acetamide] | – | > 2500 | < 250 | < 250 | < 250 | –
